Earlier results as cited in patent US6562363B1, “Bioadhesive compositions and methods for topical administration of active agents” (Noven Pharmaceuticals, Inc., priority 1997, dated 2003).

Columns and labels:
[1] = application to skin or mucous membranes; for Duration of Effect: duration of anesthetic effect; for Peak Effect: time to peak anesthetic effect
[2] = application to skin or mucous membranes

| Structure (SMILES) | Duration of Effect [1] | Peak Effect [1] | Maximum Adult Dose [2] |
| --- | --- | --- | --- |
| CCCCOc1cc(C(=O)NCCN(CC)CC)c2ccccc2n1 [Dibucaine] | 120 to 240 min | <15 min | 25 mg |
| CCOC(=O)c1ccc(N)cc1 [Benzocaine] | 30 to 60 min | 1 min | 5000 mg |
| CCN(CC)CC(=O)Nc1c(C)cccc1C [Lidocaine] | – | – | 750 mg |
| CCCCNc1ccc(C(=O)OCCN(C)C)cc1 [Tetracaine] | 30 to 60 min | 3 to 8 min | 50 mg |
| COC(=O)[C@H]1[C@@H](OC(=O)c2ccccc2)C[C@@H]2CC[C@H]1N2C [Cocaine] | – | – | 50 mg |
| CCCCOc1ccc(C(=O)CCN2CCCCC2)cc1 [Dyclonine] | <60 min | <10 min | 100 mg |
